Read-outs that look alike come from different tables or passages of the source.
Tests used:
[1] = test system: Enterococcus sp. J 14365/08; assay: Antibacterial microdilution broth, EF; assay type: cell-based; conditions: Enterococcus, read-out: MIC EF
[2] = test system: Aspergillus fumigatus 231; assay: Antifungal microdilution broth, AF; assay type: cell-based; conditions: read-out: MIC AF
[3] = test system: Mycobacterium tuberculosis H37Rv CNCTC My 331/88 (ATCC 27294); assay: Antimycobacterial microdilution MABA, M. tuberculosis; assay type: cell-based; conditions: for MIC: Mycobacterium tuberculosis
[4] = test system: Mycobacterium smegmatis CCM 4622 (ATCC 607); assay: Antimycobacterial microdilution, M. smegmatis; assay type: cell-based; conditions: Mycolicibacterium smegmatis, read-out: M. smeg. ATCC 607 MIC
Candida krusei E28 = assay: Antifungal microdilution broth, CK; assay type: cell-based; conditions: Pichia kudriavzevii, read-out: MIC CK
Candida tropicalis 156 = assay: Antifungal microdilution broth, CT; assay type: cell-based; conditions: read-out: MIC CT
[5] = test system: Lichtheimia corymbifera 272; assay: Antifungal microdilution broth, LC; assay type: cell-based; conditions: read-out: MIC LC
Candida glabrata 20/I = assay: Antifungal microdilution broth, CG; assay type: cell-based; conditions: Nakaseomyces glabratus, 20/I, read-out: MIC CG
[6] = test system: M. avium ssp. avium CNCTC My 80/72 (ATCC 15769); assay: Antimycobacterial microdilution MABA, M. avium; assay type: cell-based, Mycobacterium avium; conditions: Mycobacterium avium
[7] = test system: Staphylococcus aureus H 5996/08 methicillin resistant; assay: microbe, parasite or virus in culture; assay type: cell-based; conditions: for MIC: Staphylococcus aureus, MRSA, read-out: MIC MRSA
[8] = test system: Candida albicans ATCC 44859; assay: Antifungal microdilution broth, CA; assay type: cell-based; conditions: Candida albicans, read-out: MIC CA
[9] = test system: Staphylococcus epidermidis H 6966/08; assay: Antibacterial microdilution broth, SE; assay type: cell-based; conditions: read-out: MIC SE
[10] = test system: Staphylococcus aureus CCM 4516/08; assay: Antibacterial microdilution broth, SA; assay type: cell-based
[11] = test system: M. kansasii CNCTC My 235/80 (ATCC 12478); assay: Antimycobacterial microdilution MABA, M. kansasii; assay type: cell-based, Mycobacterium kansasii; conditions: Mycobacterium kansasii
[12] = test system: Escherichia coli CCM 4517; assay: Antibacterial microdilution broth, EC; assay type: cell-based; conditions: Escherichia coli, read-out: MIC EC
[13] = test system: Trichophyton interdigitale 445; assay: Antifungal microdilution broth, TI; assay type: cell-based; conditions: read-out: MIC TI
Trichosporon asahii 1188 = assay: Antifungal microdilution broth, TA; assay type: cell-based; conditions: read-out: MIC TA
[14] = test system: Pseudomonas aeruginosa CCM 1961; assay: Antibacterial microdilution broth, PA; assay type: cell-based; conditions: Pseudomonas aeruginosa, read-out: MIC PA
[15] = Aspergillus fumigatus, 231, 24 h
[16] = Aspergillus fumigatus, 231, 48 h
[17] = read-out: Mtb H37Rv ATCC 27294 MIC, Middlebrook 7H9 with OADC growth supplement, pH = 6.6, MABA
[18] = Lichtheimia corymbifera, 272, 24 h
[19] = Lichtheimia corymbifera, 272, 48 h
[20] = ATCC15769, pH 6.6, read-out: M. avium ATCC 15769 MIC
[21] = Staphylococcus epidermidis, H6966/08, 24 h
[22] = Staphylococcus epidermidis, H6966/08, 48 h
[23] = Staphylococcus aureus, CCM4516, 24 h, read-out: MIC SA, 24 h
[24] = Staphylococcus aureus, CCM4516, 48 h, read-out: MIC SA, 48 h
[25] = ATCC12478, pH 6.6, read-out: M. kans. ATCC 12478 MIC, Middlebrook 7H9 with OADC, pH 6.6, MABA
[26] = Trichophyton interdigitale, 445, 72 h
[27] = Trichophyton interdigitale, 445, 120 h
[28] = Trichosporon asahii, 1188, 24 h
[29] = Trichosporon asahii, 1188, 48 h
[30] = Middlebrook 7H9 with OADC growth supplement, pH = 6.6, MABA

COc1cccc(C(=O)Nc2cnc(Cl)cn2)c1 [Compound 2f]
125 µM: MIC ([8]; ATCC44859, 24 h)
>500 µM: MIC MRSA ([7]; 24 h) | MIC MRSA ([7]; 48 h) | MIC ([9]; 24 h) | MIC ([9]; 48 h)
> 500 µM: MIC ([1]; SP.J14365/08, 24 h) | MIC ([1]; SP.J14365/08, 48 h) | MIC [2, 15] | MIC [2, 16] | MIC (Candida krusei E28; E28, 24 h) | MIC (Candida krusei E28; E28, 48 h) | MIC (Candida tropicalis 156; Candida tropicalis, 156, 24 h) | MIC (Candida tropicalis 156; Candida tropicalis, 156, 48 h) | MIC [5, 18] | MIC [5, 19] | MIC (Candida glabrata 20/I; 24 h) | MIC (Candida glabrata 20/I; 48 h) | MIC ([7]; 24 h) | MIC ([7]; 48 h) | MIC [9, 21] | MIC [9, 22] | MIC ([12]; CCM4517, 24 h) | MIC ([12]; CCM4517, 48 h) | MIC [13, 26] | MIC [13, 27] | MIC (Trichosporon asahii 1188; [28]) | MIC (Trichosporon asahii 1188; [29]) | MIC ([14]; CCM1961, 72 h) | MIC ([14]; CCM1961, 120 h)
≥ 500 µg/mL: MIC [4]
31.2 µM: MIC [10, 23] | MIC [10, 24]
> 100 µg/mL: MIC [3, 17] | MIC [6, 20] | MIC [11, 25]
500 µM: MIC ([8]; ATCC44859, 48 h)

O=C(Nc1cnc(Cl)cn1)c1ccccc1Cl [Compound 2j]
≥ 500 µg/mL: MIC [4]
>100 µg/mL: Mtb H37Rv ATCC 27294 MIC [3, 30]
62.5 µM: MIC [10, 23] | MIC [10, 24]
>500 µM: MIC MRSA ([7]; 24 h) | MIC MRSA ([7]; 48 h) | MIC ([9]; 24 h) | MIC ([9]; 48 h)
62.50 µM: MIC ([10]; 24 h, read-out: MIC SA) | MIC ([10]; 48 h, read-out: MIC SA)
> 500 µM: MIC ([1]; SP.J14365/08, 24 h) | MIC ([1]; SP.J14365/08, 48 h) | MIC [2, 15] | MIC [2, 16] | MIC (Candida krusei E28; E28, 24 h) | MIC (Candida krusei E28; E28, 48 h) | MIC (Candida tropicalis 156; Candida tropicalis, 156, 24 h) | MIC (Candida tropicalis 156; Candida tropicalis, 156, 48 h) | MIC [5, 18] | MIC [5, 19] | MIC (Candida glabrata 20/I; 24 h) | MIC (Candida glabrata 20/I; 48 h) | MIC ([7]; 24 h) | MIC ([7]; 48 h) | MIC ([8]; ATCC44859, 24 h) | MIC ([8]; ATCC44859, 48 h) | MIC [9, 21] | MIC [9, 22] | MIC ([12]; CCM4517, 24 h) | MIC ([12]; CCM4517, 48 h) | MIC [13, 26] | MIC [13, 27] | MIC (Trichosporon asahii 1188; [28]) | MIC (Trichosporon asahii 1188; [29]) | MIC ([14]; CCM1961, 72 h) | MIC ([14]; CCM1961, 120 h)
> 100 µg/mL: MIC [3, 17] | MIC [6, 20] | MIC [11, 25]

Cc1ccc(C(=O)Nc2cncc(Cl)n2)cc1 [Compound 3h]
>100 µg/mL: Mtb H37Rv ATCC 27294 MIC [3, 30]
169.1 to 170 °C: melting point
> 100 µg/mL: MIC ([3]; Middlebrook 7H9 with OADC growth supplement, pH = 6.6, MABA, read-out: Mtb H37Rv ATCC 27294 MIC) | MIC ([6]; ATCC15769, Middlebrook 7H9 with OADC, pH 6.6, MABA, read-out: M. avium ATCC 15769 MIC) | MIC ([11]; ATCC12478, Middlebrook 7H9 with OADC, pH 6.6, MABA, read-out: M. kans. ATCC 12478 MIC)
≥ 500 µg/mL: MIC ([4]; Middlebrook 7H9 with OADC, resazurin)

COc1cccc(C(=O)Nc2cnccn2)c1 [Compound 1f]
≥ 500 µg/mL: MIC [4]
>100 µg/mL: Mtb H37Rv ATCC 27294 MIC [3, 30]
> 500 µM: MIC ([1]; SP.J14365/08, 24 h) | MIC ([1]; SP.J14365/08, 48 h) | MIC [2, 15] | MIC [2, 16] | MIC (Candida krusei E28; E28, 24 h) | MIC (Candida krusei E28; E28, 48 h) | MIC (Candida tropicalis 156; Candida tropicalis, 156, 24 h) | MIC (Candida tropicalis 156; Candida tropicalis, 156, 48 h) | MIC [5, 18] | MIC [5, 19] | MIC (Candida glabrata 20/I; 24 h) | MIC (Candida glabrata 20/I; 48 h) | MIC ([7]; 24 h) | MIC ([7]; 48 h) | MIC ([8]; ATCC44859, 24 h) | MIC ([8]; ATCC44859, 48 h) | MIC [9, 21] | MIC [9, 22] | MIC [10, 23] | MIC [10, 24] | MIC ([12]; CCM4517, 24 h) | MIC ([12]; CCM4517, 48 h) | MIC [13, 26] | MIC [13, 27] | MIC (Trichosporon asahii 1188; [28]) | MIC (Trichosporon asahii 1188; [29]) | MIC ([14]; CCM1961, 72 h) | MIC ([14]; CCM1961, 120 h)
> 100 µg/mL: MIC [3, 17] | MIC [6, 20] | MIC [11, 25]

Reference: article PMC6225228, “Design, Synthesis and Evaluation of N-pyrazinylbenzamides as Potential Antimycobacterial Agents” (Molecules : A Journal of Synthetic Chemistry and Natural …, 2018)
